Experimental data taken from publication PMC6301270 (MedChemComm, 2018).
Entries after “also recorded” stand apart in the source; their conditions may differ. Where two headings read alike, the source gives them in different places.

Experiments:
[1] = test system: T.b. brucei (strain 427) bloodstream form parasites; assay: Trypanosoma brucei assay, dose–response (this study); type: cell-based; settings: for IC50: Trypanosoma brucei; for Selectivity index: calculated as IC50(HeLa)/IC50(T.bb)
HeLa cells = assay: HeLa cell assay (cytotoxicity); type: cell-based; settings: Homo sapiens
Experimental: HeLa cells were cultured in DMEM medium supplemented with 10% fetal bovine serum and antibiotics (penicillin/streptomycin/amphotericin B) at 37 °C in a 5% CO2 incubator. On the day prior to compound addition, cells were plated in 96-well plates at 2 × 10^4 cells per well. Compounds were added to the cells in 3-fold serial dilutions and incubation at 37 °C in a 5% CO2 incubator continued for 48 hours. Twenty μl resazurin reagent (0.5 mM resazurin in phosphate-buffered saline) was added to each well and, after a 2-hour incubation, fluorescence (Exc560/Em590) was measured in a plate reader. Percentage cell viability in drug-treated wells was calculated from the fluorescent readings obtained relative to those in wells containing control, untreated cells. Plots of % cell viability vs. log[compound] were used to determine IC50 values by non-linear regression analysis using GraphPad Prism.

T.b. brucei = test system: T.b. brucei; set-up: method as in https://www.pathogenbox.org/; settings: Table 1, kinetoplastid category; ref https://www.pathogenbox.org/; read-out: T. brucei brucei IC50 (μM) Pathogen Box; cited from earlier work
[2] = test system: T.b. brucei (strain 427) bloodstream form parasites; assay: T.b. brucei single concentration screen (10 μM); settings: for viability at 10 µM: Trypanosoma brucei, read-out: T.b.brucei % viability (10 µM); for T.b.brucei % viability (10 µM): single concentration 10 µM, % parasite viability relative to non-treated parasites
[3] = Table 1, kinetoplastid category, 48 hours at 37 °C, resazurin, read-out: T. brucei brucei IC50 (μM) This study
[4] = Table 1, HeLa cells, 48 hours, resazurin, read-out: HeLa IC50
[5] = Table 2, remaining Pathogen Box, 48 hours at 37 °C, resazurin, read-out: T. brucei brucei IC50 (μM) This study
[6] = Table 2, HeLa cells, 48 hours, resazurin, read-out: HeLa IC50

| Structure (SMILES) | IC50 [1, 3] | IC50 (HeLa cells; [4]) | IC50 (T.b. brucei) | viability at 10 µM [2] | further results |
| --- | --- | --- | --- | --- | --- |
| O=C(Nc1ccc(F)c(-c2nc3cc(-c4ccccc4)cnc3[nH]2)c1)N1CCCC1 [Compound 2, FC1=C(C=C(NC(=O)N2CCCC2)C=C1)C1=NC2=CC(=CN=C2N1)C1=CC=CC=C1] | 0.049 µM | 0.8 µM | < 0.13 µM | 2% | – |
| O=C(Nc1ccc2c(c1)B(O)OC2)c1ccccc1C(F)(F)F [Compound 3, OB1OCc2ccc(NC(=O)c3ccccc3C(F)(F)F)cc12] | 0.14 µM | > 25 µM | 0.15 µM | 0% | – |
| CCc1ccccc1-n1c(C)cn2c3c(=O)n(C(C(=O)OC)C(C)C)c(=O)n(C)c3nc12 (stereo not drawn) [Compound 4, CCc1ccccc1n2c(C)cn3c4C(=O)N(C(C(C)C)C(=O)OC)C(=O)N(C)c4nc23] | 0.03 µM | > 25 µM | < 0.13 µM | 0% | – |
| Cc1ncc(-c2ccnc(Nc3ccc(S(C)(=O)=O)cc3)n2)n1C(C)C [Compound 6, CC(C)n1c(C)ncc1c2ccnc(Nc3ccc(cc3)S(=O)(=O)C)n2] | 0.084 µM | 1.2 µM | 0.26 µM | 2.2% | – |
| CNC(=O)c1nn(C)c2c1C(C)(C)Cc1cnc(Nc3ccc(N4CCN(C)CC4)cc3)nc1-2 [Compound 7, CNC(=O)c1nn(C)c2c3nc(Nc4ccc(cc4)N5CCN(C)CC5)ncc3CC(C)(C)c12] | 0.048 µM | 4 µM | < 0.13 µM | 0.62% | – |
| O=C(NCc1nnc2n1CCCCC2)c1ccc(-c2ccc(F)cc2)o1 [Compound 8, Fc1ccc(cc1)c2oc(cc2)C(=O)NCc3nnc4CCCCCn34] | 0.11 µM | > 25 µM | 0.1 µM | 1.3% | – |
| NCCN(C(=O)c1ccc(Cl)cc1Cl)c1ccc(OCc2ccc(Cl)cc2)cc1 [Compound 9, NCCN(C(=O)c1ccc(Cl)cc1Cl)c2ccc(OCc3ccc(Cl)cc3)cc2] | 0.49 µM | 7.5 µM | < 0.13 µM | 4% | – |
| Cc1ccc(S(=O)(=O)Nc2ccc(CN3CCN(C(=O)c4cccc(C#N)c4)CC3)cc2)cc1 [Compound 11, O=C(N1CCN(CC2=CC=C(NS(=O)(C3=CC=C(C)C=C3)=O)C=C2)CC1)C4=CC(C#N)=CC=C4] | 0.12 µM | > 25 µM | 0.14 µM | 6.6% | – |
| COc1ccc(C(=N)N)cc1-c1cn(-c2ccc(C(=N)N)cc2)nn1 [Compound 12, COc1ccc(cc1c2cn(nn2)c3ccc(cc3)C(=N)N)C(=N)N] | 0.54 µM | > 25 µM | 0.25 µM | 9% | – |
| O=C(NCCc1ccn(-c2ccccc2)n1)C1CCCCC1 [Compound 13, O=C(NCCc1ccn(n1)c2ccccc2)C3CCCCC3] | 0.21 µM | > 25 µM | 0.15 µM | 2% | – |
| CS(=O)(=O)c1ccccc1C(=O)N(Cc1ccccc1)c1ccccc1 [Compound 14, CS(=O)(=O)c1ccccc1C(=O)N(Cc2ccccc2)c3ccccc3] | 1.2 µM | > 25 µM | 0.56 µM | 18% | – |
| COc1ccc(C2=NN(C3CCCCCC3)C(=O)[C@@H]3CC=CC[C@H]23)cc1OCCCCOc1ccc(-c2nnn[nH]2)cc1 [Compound 15, COC1=C(OCCCCOC2=CC=C(C3=NNN=N3)C=C2)C=C(C([C@@H]4[C@H]5CC=CC4)=NN(C6CCCCCC6)C5=O)C=C1] | – | – | 0.02 µM | 6% | IC50 ([1]; 48 h, read-out: T. brucei brucei IC50 (μM) This study): 0.12 µM; IC50 (HeLa cells; HeLa, 48 h, read-out: HeLa IC50 (μM)): > 25 µM |
| N=C(N)Nc1ccc(-c2ccc(-c3ccc(N=C(N)N)c(Cl)c3)o2)cc1Cl [Compound 16, NC(=N)Nc1ccc(cc1Cl)c2oc(cc2)c3ccc(N=C(N)N)c(Cl)c3] | 0.65 µM | 17 µM | 0.6 µM | 1.2% | – |
| CCC(=O)Nc1ccccc1C(=O)Nc1ccccn1 [Compound 17, CCC(=O)Nc1ccccc1C(=O)Nc2ccccn2] | 0.38 µM | > 25 µM | 2.46 µM | 7% | – |
| COc1ccc(S(=O)(=O)Nc2ccc(CN3CCN(C(=O)c4cccc(C#N)c4)CC3)cc2)cc1 [Compound 18, O=C(N1CCN(CC2=CC=C(NS(=O)(C3=CC=C(OC)C=C3)=O)C=C2)CC1)C4=CC(C#N)=CC=C4] | 0.44 µM | > 25 µM | 0.5 µM | 6.5% | – |
| CCCCN(CCCC)c1c(C#N)cc(S(=O)(=O)Nc2ccccc2)cc1C#N [Compound 19, CCCCN(CCCC)c1c(cc(cc1C#N)S(=O)(=O)Nc2ccccc2)C#N] | 1.3 µM | > 25 µM | 0.26 µM | 6% | – |
| N=C(N)c1ccc(-c2cc(-c3ccccc3)on2)cc1 [Compound 26, NC(=N)c1ccc(cc1)c2cc(on2)c3ccccc3] | – | – | 4.06 µM | 14% | T.b.brucei % viability (10 µM) [2]: did not sufficiently reduce cell viability |
| CCN(CC)S(=O)(=O)c1ccc(C(=O)Nc2cc(C)nn2-c2nc(C)c(C)c(=O)[nH]2)cc1 [Compound 27, CC1=C(C)C(NC(N2N=C(C)C=C2NC(C3=CC=C(S(=O)(N(CC)CC)=O)C=C3)=O)=N1)=O] | – | – | 5.3 µM | 58% | T.b.brucei % viability (10 µM) [2]: did not sufficiently reduce cell viability |
| N=C(N)Nc1ccc(-c2ccc(-c3ccc(NC(=N)N)cc3Cl)o2)c(Cl)c1 [Compound 32, NC(=N)Nc1ccc(c(Cl)c1)c2oc(cc2)c3ccc(NC(=N)N)cc3Cl] | – | – | 1.03 µM | 17% | T.b.brucei % viability (10 µM) [2]: did not sufficiently reduce cell viability |
| CC(C)C(C(=O)Nc1ccc(S(=O)(=O)N(C)C)cc1)c1ccc(Cl)cc1 (stereo not drawn) [Compound 55, CC(C)C(C(=O)Nc1ccc(cc1)S(=O)(=O)N(C)C)c2ccc(Cl)cc2] | – | – | – | 8% | IC50 [1, 5]: 6.5 µM; Selectivity index [1]: 1.8; IC50 (HeLa cells; [6]): 12 µM |
| CN1CCC(NCc2cccc(-c3ccc(S(=O)(=O)NCc4ccccc4)cc3)c2)CC1 [Compound 56, CN1CCC(CC1)NCc2cccc(c2)c3ccc(cc3)S(=O)(=O)NCc4ccccc4] | – | – | – | 2% | T.b. brucei inhibition in words, this study [1]: sub-micromolar range; also recorded: activity in the nanomolar range; IC50 [1, 5]: 0.22 µM; IC50 ([1]; pIC50 values (M), read-out: pIC50 (T.b. brucei), this study (converted)): < 1 µM; IC50 (HeLa cells; [6]): 13 µM |
| Nc1nccc2ccc(-c3ccc4nccn4c3)cc12 [Compound 57, Nc1nccc2ccc(cc12)c3ccc4nccn4c3] | – | – | – | 3% | IC50 [1, 5]: 1.2 µM; Selectivity index [1]: 4.5; IC50 (HeLa cells; [6]): 5.4 µM |
| OCCc1ccc(Nc2nccc(-c3nnc4ccccn34)n2)cc1 [Compound 58, OCCc1ccc(Nc2nccc(n2)c3nnc4ccccn34)cc1] | – | – | – | 11% | IC50 [1, 5]: 1.5 µM; Selectivity index [1]: > 17; IC50 (HeLa cells; [6]): > 25 µM |
| CCCn1c(NC(=O)c2ccc3ccccc3n2)nc2ccccc21 [Compound 59, CCCn1c(NC(=O)c2ccc3ccccc3n2)nc4ccccc14] | – | – | – | 2% | IC50 [1, 5]: 7.1 µM; Selectivity index [1]: > 3.5; IC50 (HeLa cells; [6]): > 25 µM |
| Oc1c(I)cc(I)c2cccnc12 [Compound 60, Oc1c(I)cc(I)c2cccnc12] | – | – | – | 1% | IC50 [1, 5]: 2 µM; Selectivity index [1]: > 13; IC50 (HeLa cells; [6]): > 25 µM |
| CS(=O)(=O)c1ccc(C(=O)N(CC2CCCO2)c2nc3ccccc3s2)cc1[N+](=O)[O-] (stereo not drawn) [Compound 61, CS(=O)(=O)c1ccc(cc1[N+](=O)[O-])C(=O)N(CC2CCCO2)c3nc4ccccc4s3] | – | – | – | 0% | IC50 [1, 5]: 11 µM; Selectivity index [1]: > 2.3; IC50 (HeLa cells; [6]): > 25 µM |
